Assay results reported in ChEMBL document CHEMBL2074245, “Valacyclovir: a substrate for the intestinal and renal peptide transporters PEPT1 and PEPT2” (Biochem Biophys Res Commun, 1998).

Experiments:
Format in all cases: functional, cell-based
[1] = target: T1, Solute carrier family 15 member 2 (Rattus norvegicus, UniProt Q63424); experiment: TP_TRANSPORTER: inhibition of Gly-Sar uptake in PEPT2-expressing HeLa cells
T1 sequence (Q63424 whole entry): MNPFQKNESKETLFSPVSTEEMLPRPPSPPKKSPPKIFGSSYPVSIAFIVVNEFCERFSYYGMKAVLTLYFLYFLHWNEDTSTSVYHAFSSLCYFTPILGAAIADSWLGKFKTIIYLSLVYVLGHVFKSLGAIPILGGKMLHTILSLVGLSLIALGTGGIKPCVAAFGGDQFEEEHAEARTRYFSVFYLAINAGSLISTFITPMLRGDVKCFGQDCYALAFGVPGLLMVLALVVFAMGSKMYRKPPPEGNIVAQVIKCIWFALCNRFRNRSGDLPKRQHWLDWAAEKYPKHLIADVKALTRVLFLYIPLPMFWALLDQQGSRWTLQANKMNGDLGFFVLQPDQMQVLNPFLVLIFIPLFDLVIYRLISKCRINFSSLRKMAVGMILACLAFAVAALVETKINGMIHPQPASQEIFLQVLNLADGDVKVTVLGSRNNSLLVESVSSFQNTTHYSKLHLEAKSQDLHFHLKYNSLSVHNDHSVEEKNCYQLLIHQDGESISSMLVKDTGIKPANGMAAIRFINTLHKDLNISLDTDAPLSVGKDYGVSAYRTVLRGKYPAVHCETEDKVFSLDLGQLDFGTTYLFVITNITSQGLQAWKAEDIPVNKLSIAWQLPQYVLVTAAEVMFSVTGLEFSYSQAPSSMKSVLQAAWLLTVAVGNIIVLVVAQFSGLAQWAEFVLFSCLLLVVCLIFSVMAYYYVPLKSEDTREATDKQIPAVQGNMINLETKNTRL

[2] = target: T2, Solute carrier family 15 member 1 (Homo sapiens, UniProt P46059); experiment: TP_TRANSPORTER: inhibition of Gly-Sar uptake in Caco-2 cells
T2 sequence (P46059 whole entry): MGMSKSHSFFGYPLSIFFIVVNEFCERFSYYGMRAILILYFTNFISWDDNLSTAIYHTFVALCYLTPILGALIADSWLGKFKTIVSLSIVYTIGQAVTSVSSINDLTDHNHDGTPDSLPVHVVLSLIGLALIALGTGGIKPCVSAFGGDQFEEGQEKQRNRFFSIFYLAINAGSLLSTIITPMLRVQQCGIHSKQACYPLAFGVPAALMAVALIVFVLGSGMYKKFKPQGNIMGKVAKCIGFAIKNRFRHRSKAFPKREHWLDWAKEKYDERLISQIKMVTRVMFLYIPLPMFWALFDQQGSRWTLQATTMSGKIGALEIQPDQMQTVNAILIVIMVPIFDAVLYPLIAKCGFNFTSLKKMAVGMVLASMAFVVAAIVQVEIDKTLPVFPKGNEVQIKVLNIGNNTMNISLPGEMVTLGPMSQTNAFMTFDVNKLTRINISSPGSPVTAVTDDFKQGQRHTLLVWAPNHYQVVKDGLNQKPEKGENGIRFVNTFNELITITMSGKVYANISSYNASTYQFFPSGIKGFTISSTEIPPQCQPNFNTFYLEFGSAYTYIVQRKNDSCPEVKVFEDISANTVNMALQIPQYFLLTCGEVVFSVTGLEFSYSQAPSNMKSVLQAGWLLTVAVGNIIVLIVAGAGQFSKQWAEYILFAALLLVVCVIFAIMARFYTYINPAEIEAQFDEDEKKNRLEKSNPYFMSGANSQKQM

[3] = target: T2, Solute carrier family 15 member 1; experiment: TP_TRANSPORTER: inhibition of Gly-Sar uptake in PEPT1-expressing HeLa cells
[4] = target: T1, Solute carrier family 15 member 2; experiment: TP_TRANSPORTER: inhibition of Gly-Sar uptake in SKPT cells
[5] = substrate: CN(CC(=O)O)C(=O)CN; experiment: TP_TRANSPORTER: uptake in SKPT cells
[6] = substrate: CN(CC(=O)O)C(=O)CN; experiment: TP_TRANSPORTER: uptake in PEPT2-expressing HeLa cells
[7] = substrate: CN(CC(=O)O)C(=O)CN; experiment: TP_TRANSPORTER: uptake in Caco-2 cells
[8] = substrate: CN(CC(=O)O)C(=O)CN; experiment: TP_TRANSPORTER: uptake in PEPT1-expressing HeLa cells

CC(C)[C@H](N)C(=O)OCCOCn1cnc2c(=O)[nH]c(N)nc21 [VALACYCLOVIR]
Ki [1]: 390 µM
Ki [2]: 490 µM
Ki [3]: 740 µM
Ki [4]: 170 µM

B1: Solute carrier family 15 member 2 (Rattus norvegicus), Q63424 (protein)
chain: T1 sequence (Q63424 whole entry)
Km [5]: 67 µM
Km [6]: 70 µM

B2: Solute carrier family 15 member 1 (Homo sapiens), P46059 (protein)
chain: T2 sequence (P46059 whole entry)
Km [7]: 510 µM
Km [8]: 450 µM
